SMILES strings stand for the structures. Calls of active or inactive are those of the source. No cut-off for these calls is given here.

In assay [1] the test system is MDA-MB-231. Put plainly: cells. The settings on record: Homo sapiens.
Assay [2] has as its target Poly [ADP-ribose] polymerase 1 (Homo sapiens, UniProt P09874). As to the kind of experiment: Inhibition of PARP1 (unknown origin).
Assay [3] concerns the target Nicotinamide phosphoribosyltransferase (Homo sapiens, UniProt P43490). As to the kind of experiment: Inhibition of NAMPT (unknown origin).
For the next assay, the system named is MDA-MB-436. As to the kind of experiment: cells. The settings on record: Homo sapiens.
In assay [4] the test system is MDA-MB-231. Put plainly: Induction of DNA damage in human MDA-MB-231 cells assessed as increase in gammaH2AX levels at 5 to 10 uM incubated for 48 hrs by DAPI staining based Immunofluorescence analysis. The assay is classed as functional, cell-based. Particulars: dose 5-10 µM.
The test system of assay [5] is MDA-MB-231. Put plainly: Downregulation of Rad51 level in human MDA-MB-231 cells at 5 to 10 uM by Western blot analysis. The settings on record: dose 5-10 µM. The assay is classed as functional, cell-based. For orientation: In western blotting, separated proteins are transferred to a membrane and probed.
Assay [6] concerns MDA-MB-231. As to the kind of experiment: Induction of apoptosis in human MDA-MB-231 cells harboring wild-type BRCA assessed as viable cells at 10 uM incubated for 48 hrs by Annexin V-FITC/PI staining based flow cytometry analysis (reference value: 94.3%). Particulars: read-out: Activity. The assay is classed as functional.
The test system of assay [7] is MDA-MB-231. Put plainly: Antimigratory activity against human MDA-MB-231 cells at 10 uM incubated for 48 hrs by wound healing assay. The class given is functional, cell-based.
The test system of assay [8] is MDA-MB-231. As to the kind of experiment: Induction of apoptosis in human MDA-MB-231 cells harboring wild-type BRCA incubated for 48 hrs by Annexin V-FITC/PI staining based flow cytometry analysis. The class given is functional, cell-based. Particulars: dose 5-10 µM. For orientation: A flow cytometer gives signals particle by particle.
Assay [9] has as its system MDA-MB-231. Put plainly: Induction of apoptosis in human MDA-MB-231 cells harboring wild-type BRCA assessed as viable cells at 5 uM incubated for 48 hrs by Annexin V-FITC/PI staining based flow cytometry analysis (reference value: 94.3%). The assay is classed as functional. Particulars: read-out: Activity.
In assay [10] the test system is MDA-MB-231. Put plainly: Antimigratory activity against human MDA-MB-231 cells at 10 uM incubated for 48 hrs by Transwell migration assay. The class given is functional, cell-based.
Assay [11] relates to MDA-MB-231. Put plainly: Induction of apoptosis in human MDA-MB-231 cells harboring wild-type BRCA assessed as early apoptotic cells at 10 uM incubated for 48 hrs by Annexin V-FITC/PI staining based flow cytometry analysis (reference value: 1.60%). The class given is functional.
For assay [12], the system named is MDA-MB-231. As to the kind of experiment: Induction of apoptosis in human MDA-MB-231 cells harboring wild-type BRCA assessed as late apoptotic cells at 10 uM incubated for 48 hrs by Annexin V-FITC/PI staining based flow cytometry analysis (reference value: 2.38%). The class given is functional.
Assay [13] deals with MDA-MB-231. Put plainly: Induction of apoptosis in human MDA-MB-231 cells harboring wild-type BRCA assessed as necrotic cells at 10 uM incubated for 48 hrs by Annexin V-FITC/PI staining based flow cytometry analysis (reference value: 1.68%). The class given is functional.
Assay [14] concerns MDA-MB-231. As to the kind of experiment: Induction of apoptosis in human MDA-MB-231 cells harboring wild-type BRCA assessed as early apoptotic cells at 5 uM incubated for 48 hrs by Annexin V-FITC/PI staining based flow cytometry analysis (reference value: 1.60%). The assay is classed as functional.
The subject of assay [15] is MDA-MB-231. As to the kind of experiment: Induction of apoptosis in human MDA-MB-231 cells harboring wild-type BRCA assessed as necrotic cells at 5 uM incubated for 48 hrs by Annexin V-FITC/PI staining based flow cytometry analysis (reference value: 1.68%). The class given is functional.
For assay [16], the system named is MDA-MB-231. As to the kind of experiment: Downregulation of BRCA1 level in human MDA-MB-231 cells at 5 to 10 uM by Western blot analysis. The class given is functional, cell-based. The settings on record: dose 5-10 µM.
For assay [17], the system named is MDA-MB-231. Put plainly: Induction of apoptosis in human MDA-MB-231 cells harboring wild-type BRCA assessed as late apoptotic cells at 5 uM incubated for 48 hrs by Annexin V-FITC/PI staining based flow cytometry analysis (reference value: 2.38%). The class given is functional.
Assay [18] concerns MDA-MB-231. As to the kind of experiment: Induction of apoptosis in human MDA-MB-231 cells harboring wild-type BRCA assessed as necrotic cells at 15 uM incubated for 48 hrs by Annexin V-FITC/PI staining based flow cytometry analysis (reference value: 1.68%). The class given is functional.
The subject of assay [19] is MDA-MB-231. Put plainly: Induction of apoptosis in human MDA-MB-231 cells harboring wild-type BRCA assessed as viable cells at 15 uM incubated for 48 hrs by Annexin V-FITC/PI staining based flow cytometry analysis (reference value: 94.3%). The class given is functional. Particulars: read-out: Activity.
Assay [20] has as its system MDA-MB-231. As to the kind of experiment: Induction of apoptosis in human MDA-MB-231 cells harboring wild-type BRCA assessed as early apoptotic cells at 15 uM incubated for 48 hrs in presence of Olaparib by Annexin V-FITC/PI staining based flow cytometry analysis (reference value: 1.60%). The class given is functional.
The test system of assay [21] is MDA-MB-231. As to the kind of experiment: Induction of apoptosis in human MDA-MB-231 cells harboring wild-type BRCA assessed as late apoptotic cells at 15 uM incubated for 48 hrs in presence of Olaparib by Annexin V-FITC/PI staining based flow cytometry analysis (reference value: 2.38%). The assay is classed as functional.
In assay [22] the test system is MDA-MB-231. As to the kind of experiment: Induction of apoptosis in human MDA-MB-231 cells harboring wild-type BRCA assessed as necrotic cells at 15 uM incubated for 48 hrs in presence of Olaparib by Annexin V-FITC/PI staining based flow cytometry analysis (reference value: 1.68%). The class given is functional.
In assay [23] the test system is MDA-MB-231. Put plainly: Induction of apoptosis in human MDA-MB-231 cells harboring wild-type BRCA assessed as late apoptotic cells at 15 uM incubated for 48 hrs by Annexin V-FITC/PI staining based flow cytometry analysis (reference value: 2.38%). The class given is functional.
The test system of assay [24] is MDA-MB-231. As to the kind of experiment: Induction of apoptosis in human MDA-MB-231 cells harboring wild-type BRCA assessed as early apoptotic cells at 15 uM incubated for 48 hrs by Annexin V-FITC/PI staining based flow cytometry analysis (reference value: 1.60%). The assay is classed as functional.
In assay [25] the test system is MDA-MB-231. As to the kind of experiment: Induction of apoptosis in human MDA-MB-231 cells harboring wild-type BRCA assessed as viable cells at 15 uM incubated for 48 hrs in presence of Olaparib by Annexin V-FITC/PI staining based flow cytometry analysis (reference value: 94.3%). The class given is functional. Particulars: read-out: Activity.
Assay [26] has as its system MDA-MB-231. Put plainly: Synergistic anti-proliferative activity against human MDA-MB-231 cells harboring wild-type BRCA assessed as combination index at 10 to 40 uM in presence of olaparib. Particulars: dose 10-40 µM. The assay is classed as functional.
Assay [27] has as its system MDA-MB-231. As to the kind of experiment: Induction of apoptosis in human MDA-MB-231 cells harboring wild-type BRCA assessed as viable cells at 10 uM incubated for 48 hrs in presence of GNE-617 by Annexin V-FITC/PI staining based flow cytometry analysis (reference value: 94.3%). The class given is functional. The settings on record: read-out: Activity.
Assay [28] concerns MDA-MB-231. As to the kind of experiment: Induction of apoptosis in human MDA-MB-231 cells harboring wild-type BRCA assessed as early apoptotic cells at 10 uM incubated for 48 hrs in presence of GNE-617 by Annexin V-FITC/PI staining based flow cytometry analysis (reference value: 1.60%). The assay is classed as functional.
For assay [29], the system named is MDA-MB-231. Put plainly: Induction of apoptosis in human MDA-MB-231 cells harboring wild-type BRCA assessed as late apoptotic cells at 10 uM incubated for 48 hrs in presence of GNE-617 by Annexin V-FITC/PI staining based flow cytometry analysis (reference value: 2.38%). The assay is classed as functional.
The subject of assay [30] is MDA-MB-231. As to the kind of experiment: Induction of apoptosis in human MDA-MB-231 cells harboring wild-type BRCA assessed as necrotic cells at 10 uM incubated for 48 hrs in presence of GNE-617 by Annexin V-FITC/PI staining based flow cytometry analysis (reference value: 1.68%). The assay is classed as functional.

Sequence of Poly [ADP-ribose] polymerase 1 (P09874 whole entry): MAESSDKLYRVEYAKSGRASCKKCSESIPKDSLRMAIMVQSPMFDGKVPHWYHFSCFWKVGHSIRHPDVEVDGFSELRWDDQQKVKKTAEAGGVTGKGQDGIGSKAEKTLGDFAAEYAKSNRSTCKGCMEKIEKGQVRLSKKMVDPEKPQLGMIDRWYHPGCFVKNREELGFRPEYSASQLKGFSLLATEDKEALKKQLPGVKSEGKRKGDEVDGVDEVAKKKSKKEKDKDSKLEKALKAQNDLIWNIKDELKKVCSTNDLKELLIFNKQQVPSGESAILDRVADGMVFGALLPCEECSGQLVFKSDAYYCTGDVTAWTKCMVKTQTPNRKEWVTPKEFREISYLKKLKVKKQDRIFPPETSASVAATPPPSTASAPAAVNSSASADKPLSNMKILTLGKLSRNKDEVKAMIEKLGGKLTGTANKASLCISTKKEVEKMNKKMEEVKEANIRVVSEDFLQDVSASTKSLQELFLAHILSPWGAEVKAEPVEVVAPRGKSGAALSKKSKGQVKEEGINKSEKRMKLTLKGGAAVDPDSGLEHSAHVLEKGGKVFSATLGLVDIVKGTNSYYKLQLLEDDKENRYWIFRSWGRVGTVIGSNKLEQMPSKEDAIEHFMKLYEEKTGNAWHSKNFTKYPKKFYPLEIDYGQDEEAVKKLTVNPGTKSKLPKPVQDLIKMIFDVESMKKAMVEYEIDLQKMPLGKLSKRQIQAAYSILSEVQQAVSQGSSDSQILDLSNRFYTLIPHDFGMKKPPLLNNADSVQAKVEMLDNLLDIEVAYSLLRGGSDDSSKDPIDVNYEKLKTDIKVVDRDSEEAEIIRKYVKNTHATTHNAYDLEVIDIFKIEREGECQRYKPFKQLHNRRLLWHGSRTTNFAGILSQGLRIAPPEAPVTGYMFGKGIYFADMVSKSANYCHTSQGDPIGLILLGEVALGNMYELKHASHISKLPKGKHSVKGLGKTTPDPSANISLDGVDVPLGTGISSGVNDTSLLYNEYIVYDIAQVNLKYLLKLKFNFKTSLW
Sequence of Nicotinamide phosphoribosyltransferase (P43490 whole entry): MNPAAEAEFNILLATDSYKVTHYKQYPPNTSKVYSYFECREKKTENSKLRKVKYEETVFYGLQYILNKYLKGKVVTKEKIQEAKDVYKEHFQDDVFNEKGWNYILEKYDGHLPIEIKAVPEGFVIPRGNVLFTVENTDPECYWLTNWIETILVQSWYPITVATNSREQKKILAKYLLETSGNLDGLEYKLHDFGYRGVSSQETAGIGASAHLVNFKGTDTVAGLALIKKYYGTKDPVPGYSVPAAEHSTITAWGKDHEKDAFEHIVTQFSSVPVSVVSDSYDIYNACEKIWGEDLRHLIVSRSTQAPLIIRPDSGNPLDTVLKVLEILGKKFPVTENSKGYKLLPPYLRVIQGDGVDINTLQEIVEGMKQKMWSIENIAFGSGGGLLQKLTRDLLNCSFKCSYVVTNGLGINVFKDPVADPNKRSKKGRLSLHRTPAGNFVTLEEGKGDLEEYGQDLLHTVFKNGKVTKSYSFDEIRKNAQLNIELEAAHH

For `O=C(/C=C/c1cccnc1)NCCCCN1CCN(C(=O)c2cc(Cc3n[nH]c(=O)c4ccccc34)ccc2F)CC1`, the IC50 (as a rule, the concentration at which inhibition is half-maximal) with MDA-MB-231 [1] was determined as 4170 nM; in [2], 0.9 nM; in assay [3], 10 nM; in the assay with MDA-MB-436, 1440 nM.

`O=C(NCCCCCN1CCN(C(=O)c2cc(Cc3n[nH]c(=O)c4ccccc34)ccc2F)CC1)c1ccc2nccn2c1`: in [2], the IC50 was determined as 1.8 nM.

On to `O=C(/C=C/c1cccnc1)NCCCN1CCN(C(=O)c2cc(Cc3n[nH]c(=O)c4ccccc34)ccc2F)CC1`, for which the values for the IC50 in assay [2] and in assay [3] were 0.6 nM and 68 nM, respectively.

On to `O=C(/C=C/c1cccnc1)NCCCCCN1CCN(C(=O)c2cc(Cc3n[nH]c(=O)c4ccccc34)ccc2F)CC1`, for which the IC50 in the assay on MDA-MB-231 [1] came out at 2540 nM; in [2] it was 1.6 nM; in [3], 14 nM; with MDA-MB-436, 1120 nM.

Regarding `O=C(NCCCCCCN1CCN(C(=O)c2cc(Cc3n[nH]c(=O)c4ccccc34)ccc2F)CC1)c1ccc2nccn2c1`, the outcome with MDA-MB-231 [4], in the assay with MDA-MB-231 [5], with MDA-MB-231 [7], in the assay on MDA-MB-231 [10] and with MDA-MB-231 [16] was Active. Besides, in the assay on MDA-MB-231 [6], the viability at 10 µM turned out to be 49.3%. Further, the IC50 in the assay with MDA-MB-231 [1] was found to be 700 nM; in [2] it was 0.8 nM; in assay [3], 18 nM; with MDA-MB-436, 960 nM. Moreover, the Activity result with MDA-MB-231 [8] was “Dose-dependent-effect”; with MDA-MB-231 [11] it was 44.2%; in the assay with MDA-MB-231 [12], 6.09%; in the assay with MDA-MB-231 [13] it was 0.41%; in the assay with MDA-MB-231 [14], 29.8%; with MDA-MB-231 [15] it was 0.031%. Moreover, in the assay with MDA-MB-231 [17], the Activity was 1.84%. Besides, the viability at 5 µM in the assay with MDA-MB-231 [9] came to 68.3%.

Take `O=C(NCc1ccc(S(=O)(=O)c2cc(F)cc(F)c2)cc1)c1ccc2nccn2c1`: the Activity is given as 0.023% in the assay on MDA-MB-231 [18]; 34.6% in the assay on MDA-MB-231 [20]; 1.38% with MDA-MB-231 [21]; 0.023% in the assay with MDA-MB-231 [22]; 0.19% in the assay with MDA-MB-231 [23]; 17% with MDA-MB-231 [24]. Further, the viability at 15 µM was found to be 82.7% with MDA-MB-231 [19] and 64% in the assay on MDA-MB-231 [25]. Also, the results for the IC50 in the assay on MDA-MB-231 [1] and with MDA-MB-436 were 50900 nM and 34200 nM, respectively. The CI with MDA-MB-231 [26] is less than 1.

`O=C(/C=C/c1cccnc1)NCCN1CCN(C(=O)c2cc(Cc3n[nH]c(=O)c4ccccc34)ccc2F)CC1`: the concentration for half-maximal inhibition (IC50) in assay [3] is 93 nM.

On to `O=C(NCCCCN1CCN(C(=O)c2cc(Cc3n[nH]c(=O)c4ccccc34)ccc2F)CC1)c1ccc2nccn2c1`, for which the figures for the IC50 in [2] and in assay [3] were 1 nM and 72 nM, respectively.

With `O=C(/C=C/c1cccnc1)NCCCCCCN1CCN(C(=O)c2cc(Cc3n[nH]c(=O)c4ccccc34)ccc2F)CC1`, the figures for the IC50 in [2] and in assay [3] were 1 nM and 349 nM, respectively.

On to `O=C(c1cc(Cc2n[nH]c(=O)c3ccccc23)ccc1F)N1CCN(C(=O)C2CC2)CC1` [OLAPARIB], for which the viability at 10 µM in the assay on MDA-MB-231 [27] was found to be 64%; with MDA-MB-231 [6], 87.5%. The IC50 in the assay with MDA-MB-231 [1] came to 29800 nM; in the assay with MDA-MB-436, 1180 nM. Further, the Activity is given as 12.4% in the assay on MDA-MB-231 [11]; 34.6% in the assay with MDA-MB-231 [28]; 0.041% with MDA-MB-231 [12]; 0.006% in the assay on MDA-MB-231 [13]; 1.38% in the assay with MDA-MB-231 [29]; 0.023% in the assay with MDA-MB-231 [30].

The values are drawn from ChEMBL document CHEMBL6109063, “Discovery of dual PARP/NAMPT inhibitors for the treatment of BRCA wild-type triple-negative breast cancer” (Bioorg Med Chem Lett, 2025).
